Assay: xn = mol fraction of the nth substance listed

CCOC(=O)CC + c1ccccc1
viscosity [mPa·s], 101.3 kPa
Settings	308.15 K	318.15 K
x1 = 0.0521	0.53	0.47
x1 = 0.0984	0.525	0.47
x1 = 0.2018	0.513	0.469
x1 = 0.3029	0.503	0.468
x1 = 0.4009	0.495	0.465
x1 = 0.4991	0.487	0.462
x1 = 0.5982	0.481	0.459
x1 = 0.7114	0.475	0.453
x1 = 0.8042	0.472	0.448
x1 = 0.8989	0.469	0.443
x1 = 0.92	0.468	0.441

O=C1OCCO1 + CS(C)=O
313.15 K, 101.33 kPa
Settings	viscosity [mPa·s]
x2 = 0.0721	1.862
x2 = 0.1744	1.786
x2 = 0.2849	1.709
x2 = 0.3698	1.656
x2 = 0.469	1.611
x2 = 0.5668	1.571
x2 = 0.6744	1.538
x2 = 0.7969	1.515
x2 = 0.8782	1.51
x2 = 0.9732	1.511

O=C1CCCN1C1CCCCC1 + CN1CCCC1=O
298.15 K, 100 kPa
Settings	viscosity [mPa·s]
x2 = 0.0108	10.21
x2 = 0.0206	9.998
x2 = 0.026	9.92
x2 = 0.0415	9.645
x2 = 0.046	9.574
x2 = 0.06	9.318
x2 = 0.0748	9.054
x2 = 0.0872	8.858
x2 = 0.094	8.735
x2 = 0.2076	7.103
x2 = 0.302	5.992
x2 = 0.4096	4.942
x2 = 0.5043	4.171
x2 = 0.61	3.449
x2 = 0.7	2.937
x2 = 0.8042	2.436
x2 = 0.9004	2.038
x2 = 0.9083	2.005
x2 = 0.9175	1.967
x2 = 0.9328	1.93
x2 = 0.9426	1.884
x2 = 0.9516	1.854
x2 = 0.9616	1.837
x2 = 0.9708	1.795
x2 = 0.9798	1.775

CC(C)CO + CCCCCCC
303.15 K, 101.33 kPa
Settings	viscosity [mPa·s]
x2 = 0.1513	1.552
x2 = 0.3016	1.023
x2 = 0.4515	0.724
x2 = 0.6022	0.562
x2 = 0.7374	0.478
x2 = 0.8984	0.421

CC1=CCC2CC1C2(C)C (configuration not stated) + CCCCCC
298.15 K, 101.33 kPa
Settings	viscosity [mPa·s]
x2 = 0.0422	1.207
x2 = 0.06195	1.165
x2 = 0.1087	1.077
x2 = 0.254	0.842
x2 = 0.3759	0.699
x2 = 0.5049	0.577
x2 = 0.6267	0.487
x2 = 0.7168	0.43
x2 = 0.867	0.355
x2 = 0.9244	0.326
x2 = 0.9625	0.31

CC1CCC(C)O1 (configuration not stated) + ClC1CCCCC1
viscosity [mPa·s], 101.3 kPa
Settings	x1 = 0.0973	x1 = 0.2014	x1 = 0.3026	x1 = 0.3986	x1 = 0.4986	x1 = 0.6031	x1 = 0.7002	x1 = 0.7977	x1 = 0.8986
298.15 K	1.36	1.179	1.033	0.9191	0.818	0.7279	0.6563	0.5937	0.5366
313.15 K	1.073	0.9412	0.8337	0.7486	0.6724	0.6054	0.551	0.499	0.452

Cc1ccccc1O + Cc1ccccc1
308.15 K, 101 kPa
Settings	viscosity [mPa·s]
x1 = 0.1491	0.6
x1 = 0.224	0.7051
x1 = 0.307	0.8217
x1 = 0.397	0.9904
x1 = 0.5325	1.332
x1 = 0.6095	1.604
x1 = 0.6968	2.034
x1 = 0.7755	2.544
x1 = 0.87	3.369

CCCCCOC(C)=O + Cc1ccccc1O
Settings	viscosity [mPa·s]
298.15 K, 101 kPa, x2 = 0.5	1.165

CC1CCCO1 (configuration not stated) + Clc1ccccc1
298.15 K, 101 kPa
Settings	viscosity [mPa·s]
x2 = 0.0188	0.47
x2 = 0.0509	0.482
x2 = 0.103	0.501
x2 = 0.157	0.52
x2 = 0.2126	0.54
x2 = 0.2712	0.56
x2 = 0.3298	0.579
x2 = 0.3913	0.598
x2 = 0.4548	0.617
x2 = 0.5206	0.635
x2 = 0.5892	0.654
x2 = 0.6601	0.671
x2 = 0.7334	0.689
x2 = 0.8094	0.705
x2 = 0.889	0.722
x2 = 0.9713	0.737

C=CC(=O)OCCCC + CCCCCCCCCCO
viscosity [mPa·s], 101.3 kPa
Settings	x1 = 0.0646	x1 = 0.1907	x1 = 0.2493	x1 = 0.3612	x1 = 0.4732	x1 = 0.665	x1 = 0.756	x1 = 0.8402	x1 = 0.9227	x1 = 0.9615
298.15 K	9.073	5.873	4.998	3.536	2.535	1.653	1.303	1.07	0.905	0.843
308.15 K	6.488	4.404	3.679	2.762	2.073	1.301	1.115	0.897	0.781	0.723

Cc1ccccc1O + Cc1ccc(O)cc1
viscosity [mPa·s]
Settings	298.15 K	313.15 K	323.15 K
101 kPa, x1 = 0.1547	13.27	–	–
101 kPa, x1 = 0.2999	12	–	–
101 kPa, x1 = 0.3525	11.63	–	–
101 kPa, x1 = 0.4233	11.03	–	–
101 kPa, x1 = 0.5256	10.3	–	–
101 kPa, x1 = 0.6304	9.612	–	–
101 kPa, x1 = 0.7573	8.854	–	–
101 kPa, x1 = 0.875	8.209	–	–
101.3 kPa, x1 = 0.1	–	6.38	4.318
101.3 kPa, x1 = 0.2	–	6.086	4.147
101.3 kPa, x1 = 0.3	–	5.766	3.929
101.3 kPa, x1 = 0.4	–	5.425	3.727
101.3 kPa, x1 = 0.5	–	5.125	3.555
101.3 kPa, x1 = 0.6	–	4.847	3.401
101.3 kPa, x1 = 0.7	–	4.616	3.235
101.3 kPa, x1 = 0.8	–	4.435	3.112
101.3 kPa, x1 = 0.9	–	4.3	3.047

CCCCCOC(C)=O + Oc1ccccc1
Settings	viscosity [mPa·s]
298.15 K, 101 kPa, x2 = 0.5	1.105

CCCCCOC(C)=O + CC(=O)O
viscosity [mPa·s], 101 kPa
Settings	x1 = 0.0945	x1 = 0.2018	x1 = 0.3035	x1 = 0.4048	x1 = 0.4599	x1 = 0.5117	x1 = 0.6074	x1 = 0.6957	x1 = 0.7878	x1 = 0.8912
298.15 K	1.055	1.049	0.994	0.978	1.002	1.006	0.98	0.974	0.917	0.881
313.15 K	0.853	0.831	0.799	0.781	0.797	0.798	0.777	0.772	0.734	0.708

Cc1ccccc1O + CCC(=O)O
viscosity [mPa·s], 101 kPa
Settings	x2 = 0.1315	x2 = 0.2542	x2 = 0.3688	x2 = 0.4761	x2 = 0.5768	x2 = 0.6716	x2 = 0.7608	x2 = 0.845	x2 = 0.9246
298.15 K	6.126	4.978	4.056	3.325	2.73	2.216	1.816	1.505	1.253
308.15 K	4.701	3.949	3.325	2.79	2.329	1.93	1.606	1.33	1.1
318.15 K	3.245	2.875	2.527	2.198	1.885	1.6	1.333	1.126	0.9354

From the CheMixHub viscosity set
